Test results published in patent US10246453B2, “Benzenesulfonamide compounds and their use as therapeutic agents” (Xenon Pharmaceuticals Inc., priority 2016, dated 2019).
Counter-ions that a name gives are not always drawn.

What was measured:
NaV1.1 [1] = biological target: T1, NaV1.1 (Homo sapiens (Human), UniProt P35498); test: Sodium Influx Assay (Flux), NaV1.1; format: cell-based; settings: Trex HEK293 cells, ANG2 dye; arithmetic mean
NaV1.6 [2] = biological target: T2, NaV1.6 (Homo sapiens (Human), UniProt Q9UQD0); test: Electrophysiological Assay (EP), patch voltage clamp, NaV1.6; format: cell-based; settings: HEK-293 cells, whole-cell patch clamp, inactivated state; arithmetic mean
T2 sequence (Q9UQD0 whole entry): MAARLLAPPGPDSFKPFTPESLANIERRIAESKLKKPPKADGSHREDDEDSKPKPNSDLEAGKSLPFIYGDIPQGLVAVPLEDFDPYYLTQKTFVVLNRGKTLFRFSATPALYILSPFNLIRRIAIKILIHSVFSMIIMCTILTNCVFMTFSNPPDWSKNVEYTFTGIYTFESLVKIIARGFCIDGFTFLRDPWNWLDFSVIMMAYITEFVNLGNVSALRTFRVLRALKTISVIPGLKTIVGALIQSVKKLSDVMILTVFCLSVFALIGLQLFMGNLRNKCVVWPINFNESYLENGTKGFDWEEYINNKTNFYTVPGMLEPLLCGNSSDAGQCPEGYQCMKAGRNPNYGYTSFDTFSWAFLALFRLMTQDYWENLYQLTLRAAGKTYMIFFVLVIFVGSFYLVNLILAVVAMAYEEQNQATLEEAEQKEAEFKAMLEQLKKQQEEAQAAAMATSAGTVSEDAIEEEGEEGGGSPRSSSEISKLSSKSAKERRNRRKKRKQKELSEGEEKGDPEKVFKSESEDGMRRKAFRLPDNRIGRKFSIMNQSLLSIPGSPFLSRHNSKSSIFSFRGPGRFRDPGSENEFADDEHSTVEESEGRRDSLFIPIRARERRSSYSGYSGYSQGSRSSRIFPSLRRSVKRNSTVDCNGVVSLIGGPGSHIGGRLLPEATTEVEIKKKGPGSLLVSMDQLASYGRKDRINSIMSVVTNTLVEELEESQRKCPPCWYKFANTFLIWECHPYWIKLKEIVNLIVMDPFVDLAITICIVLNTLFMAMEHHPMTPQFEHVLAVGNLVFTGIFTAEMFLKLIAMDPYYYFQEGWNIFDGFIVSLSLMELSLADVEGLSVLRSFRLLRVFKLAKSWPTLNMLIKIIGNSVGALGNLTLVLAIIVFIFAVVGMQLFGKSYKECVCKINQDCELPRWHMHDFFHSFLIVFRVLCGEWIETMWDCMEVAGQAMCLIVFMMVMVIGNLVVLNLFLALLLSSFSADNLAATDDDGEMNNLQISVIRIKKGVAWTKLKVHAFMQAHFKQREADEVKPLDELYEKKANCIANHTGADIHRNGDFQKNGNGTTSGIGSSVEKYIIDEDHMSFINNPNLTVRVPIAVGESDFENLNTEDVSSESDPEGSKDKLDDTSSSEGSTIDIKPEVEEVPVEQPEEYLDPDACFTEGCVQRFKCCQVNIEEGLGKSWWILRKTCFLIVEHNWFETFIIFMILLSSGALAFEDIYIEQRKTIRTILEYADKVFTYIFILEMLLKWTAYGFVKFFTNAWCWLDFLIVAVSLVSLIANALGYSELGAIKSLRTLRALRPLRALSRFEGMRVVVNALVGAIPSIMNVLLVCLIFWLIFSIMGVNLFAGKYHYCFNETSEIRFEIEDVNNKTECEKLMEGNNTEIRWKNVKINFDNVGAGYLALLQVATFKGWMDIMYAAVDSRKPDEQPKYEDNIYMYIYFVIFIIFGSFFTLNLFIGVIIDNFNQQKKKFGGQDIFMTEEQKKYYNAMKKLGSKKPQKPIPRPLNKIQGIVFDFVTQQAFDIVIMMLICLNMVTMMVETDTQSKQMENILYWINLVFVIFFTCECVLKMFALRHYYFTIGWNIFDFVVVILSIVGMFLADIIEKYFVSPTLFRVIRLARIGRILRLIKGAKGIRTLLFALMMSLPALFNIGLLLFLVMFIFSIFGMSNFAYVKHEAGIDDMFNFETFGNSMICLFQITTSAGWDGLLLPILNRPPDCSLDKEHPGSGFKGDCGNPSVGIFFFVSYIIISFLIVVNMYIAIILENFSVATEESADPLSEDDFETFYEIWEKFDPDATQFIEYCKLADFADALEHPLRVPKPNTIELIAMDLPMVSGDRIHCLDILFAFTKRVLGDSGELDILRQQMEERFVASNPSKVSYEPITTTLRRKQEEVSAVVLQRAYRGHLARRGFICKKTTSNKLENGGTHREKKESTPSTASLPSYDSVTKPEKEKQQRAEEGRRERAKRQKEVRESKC

NaV1.1 [3] = biological target: T1, NaV1.1; test: Electrophysiological Assay (EP), patch voltage clamp, NaV1.1; format: cell-based; settings: HEK-293 cells, whole-cell patch clamp, inactivated state; arithmetic mean
Description: Sodium currents were measured using the patch clamp technique in the whole-cell configuration using either a PatchXpress automated voltage clamp or manually using an Axopatch 200B (Axon Instruments) or Model 2400 (A-M systems) amplifier.
In some studies, the external sodium was reduced by equimolar replacement with choline. […] All recordings were performed at ambient temperature in a bath chamber with a volume of 150 μL. Control sodium currents were measured in 0.5% DMSO. Controls and representative compounds of the invention were applied to the recording chamber through a 4-pinch or 8-pinch valve bath perfusion system manufactured by ALA Scientific Instruments.
Series resistance compensation was applied (60-80%). […] All statistics in this study are given as mean±SD.
The membrane potential was maintained at a voltage where inactivation of the channel is complete. The voltage is then stepped back to a very negative (Vhold=−150 mV) voltage for 20 ms and then a test pulse is applied to quantify the compound block. […] The percent decrease in sodium current following wash-on of compound was taken as the percent block of sodium channels.

NaV1.6 [4] = biological target: T2, NaV1.6; test: Sodium Influx Assay (Flux), NaV1.6; settings: read-out: Flux NaV1.6 IC50; Trex HEK293 cells, ANG2 dye; arithmetic mean
NaV1.5 = NaV1.5 (Homo sapiens (Human), UniProt Q14524); test: Sodium Influx Assay (Flux), NaV1.5; settings: read-out: Flux NaV1.5 IC50; Trex HEK293 cells, ANG2 dye; arithmetic mean
Chain of NaV1.5 (Q14524 other isoform, or with tags, fused parts or gaps): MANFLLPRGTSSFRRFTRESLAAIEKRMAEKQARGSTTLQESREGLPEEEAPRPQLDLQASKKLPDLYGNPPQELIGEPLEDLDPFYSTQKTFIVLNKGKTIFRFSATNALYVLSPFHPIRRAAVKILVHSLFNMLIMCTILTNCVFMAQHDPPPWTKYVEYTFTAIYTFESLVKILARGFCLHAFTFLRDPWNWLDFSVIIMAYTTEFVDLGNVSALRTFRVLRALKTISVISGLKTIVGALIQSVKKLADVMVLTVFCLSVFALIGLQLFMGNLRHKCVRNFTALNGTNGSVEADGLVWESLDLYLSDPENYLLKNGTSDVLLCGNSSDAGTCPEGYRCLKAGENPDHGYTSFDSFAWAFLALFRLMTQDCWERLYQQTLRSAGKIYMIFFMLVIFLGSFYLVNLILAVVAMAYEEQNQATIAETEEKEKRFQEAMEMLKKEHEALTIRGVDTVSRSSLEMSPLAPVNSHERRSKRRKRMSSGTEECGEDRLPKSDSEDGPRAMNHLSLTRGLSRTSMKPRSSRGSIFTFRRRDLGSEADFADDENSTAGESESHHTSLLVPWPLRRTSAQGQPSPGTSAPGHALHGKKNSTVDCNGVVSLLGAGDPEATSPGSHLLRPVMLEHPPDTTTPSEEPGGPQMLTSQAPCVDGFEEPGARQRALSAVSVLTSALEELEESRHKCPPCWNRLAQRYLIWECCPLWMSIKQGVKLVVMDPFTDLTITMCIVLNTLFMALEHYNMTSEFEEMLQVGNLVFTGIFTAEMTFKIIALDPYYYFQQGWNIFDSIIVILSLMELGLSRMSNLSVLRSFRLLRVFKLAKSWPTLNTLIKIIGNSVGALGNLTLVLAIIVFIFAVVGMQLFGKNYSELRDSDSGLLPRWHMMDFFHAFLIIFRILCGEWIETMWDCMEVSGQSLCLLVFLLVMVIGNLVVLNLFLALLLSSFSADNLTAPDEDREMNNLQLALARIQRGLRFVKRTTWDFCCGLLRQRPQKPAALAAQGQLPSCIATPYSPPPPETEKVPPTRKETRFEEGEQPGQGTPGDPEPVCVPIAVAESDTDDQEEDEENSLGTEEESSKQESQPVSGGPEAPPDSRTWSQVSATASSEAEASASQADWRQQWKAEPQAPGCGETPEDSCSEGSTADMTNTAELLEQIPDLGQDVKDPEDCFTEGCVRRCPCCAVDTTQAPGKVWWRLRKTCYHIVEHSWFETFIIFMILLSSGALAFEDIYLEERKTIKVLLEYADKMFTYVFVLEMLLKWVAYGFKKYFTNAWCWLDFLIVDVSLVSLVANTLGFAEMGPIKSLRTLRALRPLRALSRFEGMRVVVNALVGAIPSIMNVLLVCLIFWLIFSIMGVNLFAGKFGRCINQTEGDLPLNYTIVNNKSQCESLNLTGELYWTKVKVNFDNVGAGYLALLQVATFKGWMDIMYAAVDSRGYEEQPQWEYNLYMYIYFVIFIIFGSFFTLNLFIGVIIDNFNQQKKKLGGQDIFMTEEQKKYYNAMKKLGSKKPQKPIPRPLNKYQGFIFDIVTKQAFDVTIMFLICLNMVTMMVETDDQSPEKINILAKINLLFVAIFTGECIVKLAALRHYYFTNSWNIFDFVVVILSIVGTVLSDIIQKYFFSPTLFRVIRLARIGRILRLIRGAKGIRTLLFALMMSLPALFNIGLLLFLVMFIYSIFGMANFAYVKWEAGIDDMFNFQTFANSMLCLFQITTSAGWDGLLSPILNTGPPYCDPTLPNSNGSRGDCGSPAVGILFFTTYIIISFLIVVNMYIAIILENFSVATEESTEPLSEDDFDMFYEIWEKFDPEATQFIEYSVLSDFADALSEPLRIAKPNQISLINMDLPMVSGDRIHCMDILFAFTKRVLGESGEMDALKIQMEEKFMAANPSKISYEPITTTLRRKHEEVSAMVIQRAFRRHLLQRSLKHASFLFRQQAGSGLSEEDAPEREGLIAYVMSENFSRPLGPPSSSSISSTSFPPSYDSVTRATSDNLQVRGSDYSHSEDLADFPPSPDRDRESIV

Row | Structure (SMILES) | IC50 (NaV1.1 [1]) | IC50 (NaV1.6 [2]) | IC50 (NaV1.1 [3]) | IC50 (NaV1.6 [4]) | IC50 (NaV1.5)
1 | Cc1cccc(CN2CC[C@H](N(C)c3cc(F)c(S(=O)(=O)Nc4cscn4)cc3Cl)C2)n1 [Example 192, (S)-5-chloro-2-fluoro-4-(methyl(1-((6-methylpyridin-2-yl)methyl)pyrrolidin-3-yl)amino)-N-(thiazol-4-yl)benzene-sulfonamide] | > 30 µM | 0.37 µM | > 10 µM | 0.857 µM | > 30 µM
2 | CN(c1cc(F)c(S(=O)(=O)Nc2cscn2)cc1Cl)[C@H]1CCN(Cc2cccc(C(F)F)c2)C1 [Example 193, (S)-5-chloro-4-((1-(3-(difluoromethyl)benzyl)-pyrrolidin-3-yl)(methyl)amino)-2-fluoro-N-(thiazol-4-yl)benzene-sulfonamide] | 3.57 µM | 0.33 µM | > 10 µM | 0.774 µM | 9.02 µM
3 | COc1ccccc1CN1CC[C@H](N(C)c2cc(F)c(S(=O)(=O)Nc3cscn3)cc2Cl)C1 [Example 206, (S)-5-chloro-2-fluoro-4-((1-(2-methoxybenzyl)pyrrolidin-3-yl)(methyl)amino)-N-(thiazol-4-yl)benzenesulfonamide] | 22.5 µM | 0.462 µM | > 10 µM | 0.532 µM | > 30 µM
4 | C[C@@H](c1ccccc1)N1CCC(Oc2ccc(S(=O)(=O)Nc3ncns3)cc2Cl)CC1 [Example 221, (S)-3-chloro-4-((1-(1-phenylethyl)piperidin-4-yl)oxy)-N-(1,2,4-thiadiazol-5-yl)benzenesulfonamide 2,2,2-trifluoroacetate] | 10.8 µM | 0.098 µM | > 10 µM | 0.127 µM | > 30 µM
5 | C[C@H](c1ccccc1)N1CCC(Oc2cc(F)c(S(=O)(=O)Nc3cscn3)cc2Cl)CC1 [Example 222, (R)-5-chloro-2-fluoro-4-((1-(1-phenylethyl)piperidin-4-yl)oxy)-N-(thiazol-4-yl)benzenesulfonamide 2,2,2-trifluoroacetate] | 27.9 µM | 0.278 µM | > 10 µM | 0.959 µM | 19.4 µM
6 | C[C@@]1(Nc2ccc(S(=O)(=O)Nc3cscn3)cc2Cl)CCN(Cc2ccccc2)C1 [Example 225, (R)-4-((1-benzyl-3-methylpyrrolidin-3-yl)amino)-3-chloro-N-(thiazol-4-yl)benzenesulfonamide formate] | 5.45 µM | 5.31 µM | > 10 µM | 3.9 µM | 5.55 µM
7 | C[C@]1(Nc2ccc(S(=O)(=O)Nc3cscn3)cc2Cl)CCN(Cc2ccccc2)C1 [Example 226, (S)-4-((1-benzyl-3-methylpyrrolidin-3-yl)amino)-3-chloro-N-(thiazol-4-yl)benzenesulfonamide formate] | 11.5 µM | 3.08 µM | > 10 µM | 2.43 µM | 9.04 µM
8 | CC[C@@H](c1ccccc1)N1CC[C@H](N(C)c2cc(F)c(S(=O)(=O)Nc3cscn3)cc2Cl)C1 [Example 242, 5-chloro-2-fluoro-4-(methyl((S)-1-((S)-1-phenylpropyl)pyrrolidin-3-yl)amino)-N-(thiazol-4-yl)benzenesulfonamide] | 5.38 µM | 0.668 µM | > 10 µM | 0.65 µM | 9.96 µM
9 | CN(c1cc(F)c(S(=O)(=O)Nc2cscn2)cc1Cl)[C@H]1CCN([C@@H]2CCc3ccccc32)C1 [Example 246, 5-chloro-4-(((S)-1-((R)-2,3-dihydro-1H-inden-1-yl)pyrrolidin-3-yl)(methyl)amino)-2-fluoro-N-(thiazol-4-yl)benzenesulfonamide 2,2,2-trifluoroacetate] | 8.51 µM | 1.03 µM | > 10 µM | 0.629 µM | 18.7 µM
